From patent US20230085307A1, “PYRIDAZINONE COMPOUND AND HERBICIDE” (NISSAN CHEMICAL CORPORATION, priority 2019, published 2023)

system: Japanese bulrush; assay: Test Example 1: herbicidal activity, application before weed generation under submerged conditions (Table 16, symbol B); type: in vivo, Japanese bulrush (Schoenoplectus juncoides); conditions: amount of applied herbicide 320 g/ha
Method in brief: (§1)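 Submerged Wagner pots (alluvial soil, 4 cm water) sown with weed seeds and planted with 2.5-leaf rice seedlings; emulsifiable concentrate diluted in water applied to water surface on sowing day. Held in greenhouse at 25-30 °C; injury scored 0-5 by herbicidal rate after three weeks.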

Structure (SMILES)	Herbicidal effect, B: Japanese bulrush
CCOc1cc(F)ccc1-c1sc2cc(F)ccc2c1-c1c(O)c(C)nn(C)c1=O [3-011]	4 (Herbicidal rate of 70% or more and less than 90%)
CCCC(=O)Oc1c(C)nn(C)c(=O)c1-c1c(-c2ccc(F)cc2OCC)sc2cc(F)ccc12 [3-012]	5 (Herbicidal rate of 90% or more (almost completely withered))
Cc1nn(C)c(=O)c(-c2c(-c3ccc4c(c3)OCCO4)sc3cc(F)ccc23)c1O [3-013]	3 (Herbicidal rate of 40% or more and less than 70%)

system: oval-leafed pondweed; assay: Test Example 1: herbicidal activity, application before weed generation under submerged conditions (Table 16, symbol C); type: in vivo, oval-leafed pondweed (Monochoria vaginalis); conditions: amount of applied herbicide 320 g/ha
Method in brief: as §1

Structure (SMILES)	Herbicidal effect, C: oval-leafed pondweed
CCOc1cc(F)ccc1-c1sc2cc(F)ccc2c1-c1c(O)c(C)nn(C)c1=O [3-011]	3 (Herbicidal rate of 40% or more and less than 70%)
CCCC(=O)Oc1c(C)nn(C)c(=O)c1-c1c(-c2ccc(F)cc2OCC)sc2cc(F)ccc12 [3-012]	4 (Herbicidal rate of 70% or more and less than 90%)
Cc1nn(C)c(=O)c(-c2c(-c3ccc4c(c3)OCCO4)sc3cc(F)ccc23)c1O [3-013]	2 (Herbicidal rate of 20% or more and less than 40%)

system: late watergrass; assay: Test Example 2: herbicidal activity, application during weed generation under submerged conditions (Table 17, symbol A); type: in vivo, late watergrass (Echinochloa oryzicola); conditions: AAH 320 g/ha; application during weed generation, submerged conditions
Method in brief: (§2)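 Effect on each weed is rated three weeks post-treatment, using the same scoring criteria as the preceding test. Plants grow from mixed-sown seed in flooded alluvial soil (4 cm water) at 25° C. to 30° C., and are treated at one to two leaves with diluted emulsion dropped onto the water.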

Structure (SMILES)	herbicidal effect rating, A: late watergrass
CCOc1cc(F)ccc1-c1sc2cc(F)ccc2c1-c1c(O)c(C)nn(C)c1=O [3-011]	3 (Herbicidal rate of 40% or more and less than 70%)
CCCC(=O)Oc1c(C)nn(C)c(=O)c1-c1c(-c2ccc(F)cc2OCC)sc2cc(F)ccc12 [3-012]	4 (Herbicidal rate of 70% or more and less than 90%)
Cc1nn(C)c(=O)c(-c2c(-c3ccc4c(c3)OCCO4)sc3cc(F)ccc23)c1O [3-013]	0 (Herbicidal rate of 5% or less (almost no effect))

system: Japanese bulrush; assay: Test Example 2: herbicidal activity, application during weed generation under submerged conditions (Table 17, symbol B); type: in vivo, Japanese bulrush (Schoenoplectus juncoides); conditions: AAH 320 g/ha; application during weed generation, submerged conditions
Method in brief: as §2

Structure (SMILES)	herbicidal effect rating, B: Japanese bulrush
CCOc1cc(F)ccc1-c1sc2cc(F)ccc2c1-c1c(O)c(C)nn(C)c1=O [3-011]	3 (Herbicidal rate of 40% or more and less than 70%)
CCCC(=O)Oc1c(C)nn(C)c(=O)c1-c1c(-c2ccc(F)cc2OCC)sc2cc(F)ccc12 [3-012]	5 (Herbicidal rate of 90% or more (almost completely withered))
Cc1nn(C)c(=O)c(-c2c(-c3ccc4c(c3)OCCO4)sc3cc(F)ccc23)c1O [3-013]	0 (Herbicidal rate of 5% or less (almost no effect))

system: rice flat sedge; assay: Test Example 3: herbicidal effect by foliage application, Wagner pot (Table 18, symbol E); type: in vivo, rice flat sedge (Cyperus iria); conditions: amount of applied herbicide 320 g/ha
Method in brief: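 Plants were sown in alluvial soil held under 0.1–0.5 cm standing water and grown 14 days in a greenhouse at 25–30 °C. An emulsifiable formulation, water-diluted to the set dose, was then sprayed onto the foliage, and effects were scored three weeks later using previously defined criteria.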

Structure (SMILES)	herbicidal effect on E: rice flat sedge
CCOc1cc(F)ccc1-c1sc2cc(F)ccc2c1-c1c(O)c(C)nn(C)c1=O [3-011]	5 (Herbicidal rate of 90% or more (almost completely withered))
CCCC(=O)Oc1c(C)nn(C)c(=O)c1-c1c(-c2ccc(F)cc2OCC)sc2cc(F)ccc12 [3-012]	5 (Herbicidal rate of 90% or more (almost completely withered))
Cc1nn(C)c(=O)c(-c2c(-c3ccc4c(c3)OCCO4)sc3cc(F)ccc23)c1O [3-013]	5 (Herbicidal rate of 90% or more (almost completely withered))

system: wild oat; assay: Test Example 4: herbicidal effect by soil treatment (Table 19, symbol I); type: in vivo, wild oat (Avena fatua); conditions: amount of applied herbicide 320 g/ha
Method in brief: (§3)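 Step 1: sow seeds in sterilized diluvial soil, cover ~1.5 cm. Step 2: spray diluted emulsion onto soil surface at predetermined rate. Step 3: greenhouse, 25–30° C, three weeks. Step 4: grade effect on each plant by earlier criteria.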

Structure (SMILES)	herbicidal effect, I: wild oat
CCOc1cc(F)ccc1-c1sc2cc(F)ccc2c1-c1c(O)c(C)nn(C)c1=O [3-011]	4 (Herbicidal rate of 70% or more and less than 90%)
CCCC(=O)Oc1c(C)nn(C)c(=O)c1-c1c(-c2ccc(F)cc2OCC)sc2cc(F)ccc12 [3-012]	3 (Herbicidal rate of 40% or more and less than 70%)
Cc1nn(C)c(=O)c(-c2c(-c3ccc4c(c3)OCCO4)sc3cc(F)ccc23)c1O [3-013]	0 (Herbicidal rate of 5% or less (almost no effect))

system: Italian ryegrass; assay: Test Example 4: herbicidal effect by soil treatment (Table 19, symbol K); type: in vivo, Italian ryegrass (Lolium multiflorum); conditions: amount of applied herbicide 320 g/ha
Method in brief: as §3

Structure (SMILES)	herbicidal effect, K: Italian ryegrass
CCOc1cc(F)ccc1-c1sc2cc(F)ccc2c1-c1c(O)c(C)nn(C)c1=O [3-011]	3 (Herbicidal rate of 40% or more and less than 70%)
CCCC(=O)Oc1c(C)nn(C)c(=O)c1-c1c(-c2ccc(F)cc2OCC)sc2cc(F)ccc12 [3-012]	3 (Herbicidal rate of 40% or more and less than 70%)
Cc1nn(C)c(=O)c(-c2c(-c3ccc4c(c3)OCCO4)sc3cc(F)ccc23)c1O [3-013]	0 (Herbicidal rate of 5% or less (almost no effect))

system: velvetleaf; assay: Test Example 4: herbicidal effect by soil treatment (Table 19, symbol M); type: in vivo, velvetleaf (Abutilon theophrasti); conditions: amount of applied herbicide 320 g/ha
Method in brief: as §3

Structure (SMILES)	herbicidal effect, M: velvetleaf
CCOc1cc(F)ccc1-c1sc2cc(F)ccc2c1-c1c(O)c(C)nn(C)c1=O [3-011]	4 (Herbicidal rate of 70% or more and less than 90%)
CCCC(=O)Oc1c(C)nn(C)c(=O)c1-c1c(-c2ccc(F)cc2OCC)sc2cc(F)ccc12 [3-012]	0 (Herbicidal rate of 5% or less (almost no effect))
Cc1nn(C)c(=O)c(-c2c(-c3ccc4c(c3)OCCO4)sc3cc(F)ccc23)c1O [3-013]	3 (Herbicidal rate of 40% or more and less than 70%)

system: lambsquarters; assay: Test Example 4: herbicidal effect by soil treatment (Table 19, symbol O); type: in vivo, lambsquarters (Chenopodium album); conditions: amount of applied herbicide 320 g/ha
Method in brief: as §3

Structure (SMILES)	herbicidal effect, O: lambsquarters
CCOc1cc(F)ccc1-c1sc2cc(F)ccc2c1-c1c(O)c(C)nn(C)c1=O [3-011]	5 (Herbicidal rate of 90% or more (almost completely withered))
CCCC(=O)Oc1c(C)nn(C)c(=O)c1-c1c(-c2ccc(F)cc2OCC)sc2cc(F)ccc12 [3-012]	3 (Herbicidal rate of 40% or more and less than 70%)
Cc1nn(C)c(=O)c(-c2c(-c3ccc4c(c3)OCCO4)sc3cc(F)ccc23)c1O [3-013]	5 (Herbicidal rate of 90% or more (almost completely withered))

system: persian speedwell; assay: Test Example 4: herbicidal effect by soil treatment (Table 19, symbol R); type: in vivo, Persian speedwell (Veronica persica); conditions: amount of applied herbicide 320 g/ha
Method in brief: as §3

Structure (SMILES)	herbicidal effect, R: persian speedwell
CCOc1cc(F)ccc1-c1sc2cc(F)ccc2c1-c1c(O)c(C)nn(C)c1=O [3-011]	4 (Herbicidal rate of 70% or more and less than 90%)
CCCC(=O)Oc1c(C)nn(C)c(=O)c1-c1c(-c2ccc(F)cc2OCC)sc2cc(F)ccc12 [3-012]	5 (Herbicidal rate of 90% or more (almost completely withered))
Cc1nn(C)c(=O)c(-c2c(-c3ccc4c(c3)OCCO4)sc3cc(F)ccc23)c1O [3-013]	5 (Herbicidal rate of 90% or more (almost completely withered))

system: barnyard grass; assay: Test Example 5: herbicidal effect by foliage application, plastic box (Table 20, symbol H); type: in vivo, barnyard grass (Echinochloa crus-galli); conditions: foliage application, 320 g/ha, three weeks after application
Method in brief: (§4)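 Foliar spray test: emulsion formulation diluted in water to a set application rate, sprayed onto 14-day-old plants raised in diluvial soil at 25° C to 30° C under glass. Both herbicidal effect and crop effect rated visually three weeks later.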

Structure (SMILES)	H: barnyard grass, herbicidal effect grade
CCOc1cc(F)ccc1-c1sc2cc(F)ccc2c1-c1c(O)c(C)nn(C)c1=O [3-011]	5 (Herbicidal rate of 90% or more (almost completely withered))
CCCC(=O)Oc1c(C)nn(C)c(=O)c1-c1c(-c2ccc(F)cc2OCC)sc2cc(F)ccc12 [3-012]	5 (Herbicidal rate of 90% or more (almost completely withered))
Cc1nn(C)c(=O)c(-c2c(-c3ccc4c(c3)OCCO4)sc3cc(F)ccc23)c1O [3-013]	3 (Herbicidal rate of 40% or more and less than 70%)

system: wild oat; assay: Test Example 5: herbicidal effect by foliage application, plastic box (Table 20, symbol I); type: in vivo, wild oat (Avena fatua); conditions: foliage application, 320 g/ha, three weeks after application
Method in brief: as §4

Structure (SMILES)	I: wild oat, herbicidal effect grade
CCOc1cc(F)ccc1-c1sc2cc(F)ccc2c1-c1c(O)c(C)nn(C)c1=O [3-011]	5 (Herbicidal rate of 90% or more (almost completely withered))
CCCC(=O)Oc1c(C)nn(C)c(=O)c1-c1c(-c2ccc(F)cc2OCC)sc2cc(F)ccc12 [3-012]	5 (Herbicidal rate of 90% or more (almost completely withered))
Cc1nn(C)c(=O)c(-c2c(-c3ccc4c(c3)OCCO4)sc3cc(F)ccc23)c1O [3-013]	0 (Herbicidal rate of 5% or less (almost no effect))

system: Italian ryegrass; assay: Test Example 5: herbicidal effect by foliage application, plastic box (Table 20, symbol K); type: in vivo, Italian ryegrass (Lolium multiflorum); conditions: foliage application, 320 g/ha, three weeks after application
Method in brief: as §4

Structure (SMILES)	K: Italian ryegrass, herbicidal effect grade
CCOc1cc(F)ccc1-c1sc2cc(F)ccc2c1-c1c(O)c(C)nn(C)c1=O [3-011]	5 (Herbicidal rate of 90% or more (almost completely withered))
CCCC(=O)Oc1c(C)nn(C)c(=O)c1-c1c(-c2ccc(F)cc2OCC)sc2cc(F)ccc12 [3-012]	4 (Herbicidal rate of 70% or more and less than 90%)
Cc1nn(C)c(=O)c(-c2c(-c3ccc4c(c3)OCCO4)sc3cc(F)ccc23)c1O [3-013]	1 (Herbicidal rate of 5% or more and less than 20%)

system: windgrass; assay: Test Example 5: herbicidal effect by foliage application, plastic box (Table 20, symbol L); type: in vivo, windgrass (Apera spica-venti); conditions: foliage application, 320 g/ha, three weeks after application
Method in brief: as §4

Structure (SMILES)	L: windgrass, herbicidal effect grade
CCOc1cc(F)ccc1-c1sc2cc(F)ccc2c1-c1c(O)c(C)nn(C)c1=O [3-011]	5 (Herbicidal rate of 90% or more (almost completely withered))
CCCC(=O)Oc1c(C)nn(C)c(=O)c1-c1c(-c2ccc(F)cc2OCC)sc2cc(F)ccc12 [3-012]	5 (Herbicidal rate of 90% or more (almost completely withered))
Cc1nn(C)c(=O)c(-c2c(-c3ccc4c(c3)OCCO4)sc3cc(F)ccc23)c1O [3-013]	0 (Herbicidal rate of 5% or less (almost no effect))

system: velvetleaf; assay: Test Example 5: herbicidal effect by foliage application, plastic box (Table 20, symbol M); type: in vivo, velvetleaf (Abutilon theophrasti); conditions: foliage application, 320 g/ha, three weeks after application
Method in brief: as §4

Structure (SMILES)	M: velvetleaf, herbicidal effect grade
CCOc1cc(F)ccc1-c1sc2cc(F)ccc2c1-c1c(O)c(C)nn(C)c1=O [3-011]	5 (Herbicidal rate of 90% or more (almost completely withered))
CCCC(=O)Oc1c(C)nn(C)c(=O)c1-c1c(-c2ccc(F)cc2OCC)sc2cc(F)ccc12 [3-012]	5 (Herbicidal rate of 90% or more (almost completely withered))
Cc1nn(C)c(=O)c(-c2c(-c3ccc4c(c3)OCCO4)sc3cc(F)ccc23)c1O [3-013]	4 (Herbicidal rate of 70% or more and less than 90%)

system: lambsquarters; assay: Test Example 5: herbicidal effect by foliage application, plastic box (Table 20, symbol O); type: in vivo, lambsquarters (Chenopodium album); conditions: foliage application, 320 g/ha, three weeks after application
Method in brief: as §4

Structure (SMILES)	O: lambsquarters, herbicidal effect grade
CCOc1cc(F)ccc1-c1sc2cc(F)ccc2c1-c1c(O)c(C)nn(C)c1=O [3-011]	5 (Herbicidal rate of 90% or more (almost completely withered))
CCCC(=O)Oc1c(C)nn(C)c(=O)c1-c1c(-c2ccc(F)cc2OCC)sc2cc(F)ccc12 [3-012]	4 (Herbicidal rate of 70% or more and less than 90%)
Cc1nn(C)c(=O)c(-c2c(-c3ccc4c(c3)OCCO4)sc3cc(F)ccc23)c1O [3-013]	5 (Herbicidal rate of 90% or more (almost completely withered))

system: chickweed; assay: Test Example 5: herbicidal effect by foliage application, plastic box (Table 20, symbol P); type: in vivo, common chickweed (Stellaria media); conditions: foliage application, 320 g/ha, three weeks after application
Method in brief: as §4

Structure (SMILES)	P: chickweed, herbicidal effect grade
CCOc1cc(F)ccc1-c1sc2cc(F)ccc2c1-c1c(O)c(C)nn(C)c1=O [3-011]	5 (Herbicidal rate of 90% or more (almost completely withered))
CCCC(=O)Oc1c(C)nn(C)c(=O)c1-c1c(-c2ccc(F)cc2OCC)sc2cc(F)ccc12 [3-012]	5 (Herbicidal rate of 90% or more (almost completely withered))
Cc1nn(C)c(=O)c(-c2c(-c3ccc4c(c3)OCCO4)sc3cc(F)ccc23)c1O [3-013]	5 (Herbicidal rate of 90% or more (almost completely withered))
